Measured values as given in the NIST ThermoML archive (doi:10.1016/j.tca.2012.11.015).
± gives the expanded uncertainty stated by the source.

Assay: molar heat capacity at constant pressure
Details: 101.33 kPa, Crystal, Small sample (50 mg) DSC

[F-].[F-].[F-].[F-].[Li+].[Lu+3] [lithium lutetium fluoride]
Details | molar heat capacity at constant pressure [J/K/mol]
319.1 K | 130.85 ± 2.6
320.6 K | 131.02 ± 2.6
322.3 K | 131.32 ± 2.6
324.2 K | 132.25 ± 2.6
326.3 K | 132.67 ± 2.6
328.5 K | 133 ± 2.7
330.9 K | 133.72 ± 2.7
333.4 K | 133.98 ± 2.7
336 K | 134.52 ± 2.7
338.8 K | 134.79 ± 2.7
341.6 K | 135.17 ± 2.7
344.6 K | 135.52 ± 2.7
347.6 K | 135.82 ± 2.7
350.6 K | 136.23 ± 2.7
353.7 K | 136.42 ± 2.7
356.9 K | 136.86 ± 2.7
360.1 K | 137.1 ± 2.7
363.4 K | 137.35 ± 2.8
366.6 K | 137.71 ± 2.8
369.9 K | 138.05 ± 2.8
373.2 K | 138.18 ± 2.8
376.4 K | 138.33 ± 2.8
379.7 K | 138.6 ± 2.8
382.9 K | 138.79 ± 2.8
386.1 K | 139.07 ± 2.8
389.3 K | 139.36 ± 2.8
392.5 K | 139.51 ± 2.8
395.7 K | 139.75 ± 2.8
398.8 K | 140.02 ± 2.8
401.9 K | 140.28 ± 2.8
405 K | 140.35 ± 2.8
408.1 K | 140.55 ± 2.8
411.1 K | 140.85 ± 2.8
414.1 K | 141 ± 2.8
417.1 K | 141.21 ± 2.8
420.1 K | 141.55 ± 2.8
423.1 K | 141.68 ± 2.8
426 K | 141.88 ± 2.8
428.9 K | 142.09 ± 2.8
431.8 K | 142.34 ± 2.9
434.6 K | 142.51 ± 2.9
437.4 K | 142.74 ± 2.9
440.3 K | 142.93 ± 2.9
443.1 K | 143.15 ± 2.9
445.8 K | 143.38 ± 2.9
448.6 K | 143.52 ± 2.9
451.3 K | 143.71 ± 2.9
454.1 K | 144.09 ± 2.9
456.8 K | 144.11 ± 2.9
459.5 K | 144.4 ± 2.9
462.2 K | 144.65 ± 2.9
464.9 K | 144.87 ± 2.9
467.6 K | 145.03 ± 2.9
470.3 K | 145.2 ± 2.9
473 K | 145.33 ± 2.9
475.6 K | 145.69 ± 2.9
478.3 K | 146.04 ± 2.9
480.9 K | 146.21 ± 2.9
483.5 K | 146.26 ± 2.9
486.2 K | 146.62 ± 2.9
488.8 K | 146.64 ± 2.9
